Assay results as given in ChEMBL document CHEMBL1909046, “DrugMatrix in vitro pharmacology data”.

Key:
[1] = molecular target: T1, C-X-C chemokine receptor type 2 (Homo sapiens, UniProt P25025); format: cell membranes, Membrane; conditions: cho-k1; note: in other assays of this panel Not Active means under 50% inhibition at 10 µM
T1 sequence (P25025 whole entry): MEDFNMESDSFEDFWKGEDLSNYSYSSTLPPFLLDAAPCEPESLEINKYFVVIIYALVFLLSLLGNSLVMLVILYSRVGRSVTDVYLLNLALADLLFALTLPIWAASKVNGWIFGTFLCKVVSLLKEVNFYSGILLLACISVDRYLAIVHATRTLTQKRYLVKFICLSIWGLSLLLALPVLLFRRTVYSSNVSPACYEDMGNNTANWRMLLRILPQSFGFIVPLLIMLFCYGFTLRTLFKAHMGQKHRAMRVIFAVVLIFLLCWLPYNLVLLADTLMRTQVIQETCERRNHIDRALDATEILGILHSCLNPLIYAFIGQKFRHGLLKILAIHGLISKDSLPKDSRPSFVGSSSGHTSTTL

[2] = DRUGMATRIX: Glutamate, NMDA, Phencyclidine radioligand binding (ligand: [3H] TCP); format: cell membranes, Rattus norvegicus, Wistar, Cerebral cortex, Membrane; conditions: Not Active = under 50% inhibition at 10 µM
[3] = molecular target: Tyrosine-protein kinase Lck (Homo sapiens, UniProt P06239); experiment: DRUGMATRIX: Protein Tyrosine Kinase, LCK enzyme inhibition (substrate: Poly(Glu:Tyr)); format: cell-based, Insect cells; conditions: insect cells; Not Active = under 50% inhibition at 10 µM
[4] = molecular target: Cytochrome P450 3A4 (Homo sapiens, UniProt P08684); conditions: bti-tn-5b1-4; note: in other assays of this panel Not Active means under 50% inhibition at 10 µM
[5] = molecular target: T2, Alpha-2A adrenergic receptor (Homo sapiens, UniProt P08913); format: cell membranes, Sf9, Membrane; conditions: sf9; note: in other assays of this panel Not Active means under 50% inhibition at 10 µM
T2 sequence (P08913 whole entry): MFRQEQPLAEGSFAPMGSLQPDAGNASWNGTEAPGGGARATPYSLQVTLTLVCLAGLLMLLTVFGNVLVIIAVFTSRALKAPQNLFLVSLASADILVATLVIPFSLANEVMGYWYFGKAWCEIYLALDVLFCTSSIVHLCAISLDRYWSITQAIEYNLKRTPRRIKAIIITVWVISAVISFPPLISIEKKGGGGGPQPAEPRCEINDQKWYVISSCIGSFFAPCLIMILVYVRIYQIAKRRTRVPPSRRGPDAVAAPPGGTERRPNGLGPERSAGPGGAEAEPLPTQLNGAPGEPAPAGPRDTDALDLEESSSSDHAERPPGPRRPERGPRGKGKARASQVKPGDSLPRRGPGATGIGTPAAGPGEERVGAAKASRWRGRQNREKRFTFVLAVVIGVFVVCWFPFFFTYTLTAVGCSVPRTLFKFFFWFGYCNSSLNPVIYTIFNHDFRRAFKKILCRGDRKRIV

[6] = molecular target: T3, Leukotriene C4 synthase (Cavia porcellus, UniProt A6XA80); format: tissue-based, Lung;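 note: enzyme inhibition assay of leukotriene C4 synthase, using LTA4 as the substrate; in other assays of this panel Not Active means under 50% inhibition at 10 µM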
T3 sequence (A6XA80 whole entry): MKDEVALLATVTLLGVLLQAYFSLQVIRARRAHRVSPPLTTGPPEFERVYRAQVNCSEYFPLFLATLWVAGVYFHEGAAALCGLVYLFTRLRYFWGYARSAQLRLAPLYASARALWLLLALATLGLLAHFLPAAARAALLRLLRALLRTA

[7] = molecular target: Protein phosphatase 3 catalytic subunit alpha (Homo sapiens, UniProt Q08209); set-up: species or system Escherichia coli
[8] = DRUGMATRIX: Calcium Channel Type L, Benzothiazepine radioligand binding (ligand: [3H] Diltiazem); format: cell membranes, Rattus norvegicus, Wistar, Brain, Membrane; conditions: Not Active = under 50% inhibition at 10 µM
[9] = molecular target: Platelet-activating factor receptor (Homo sapiens, UniProt P25105); format: tissue-based; note: in other assays of this panel Not Active means under 50% inhibition at 10 µM
[10] = molecular target: Sodium-dependent dopamine transporter (Homo sapiens, UniProt Q01959); experiment: DRUGMATRIX: Dopamine Transporter radioligand binding (ligand: [125I] RTI-55); format: cell membranes, CHO-K1, Membrane; conditions: Not Active = under 50% inhibition at 10 µM
Chain of Sodium-dependent dopamine transporter (Q01959 whole entry): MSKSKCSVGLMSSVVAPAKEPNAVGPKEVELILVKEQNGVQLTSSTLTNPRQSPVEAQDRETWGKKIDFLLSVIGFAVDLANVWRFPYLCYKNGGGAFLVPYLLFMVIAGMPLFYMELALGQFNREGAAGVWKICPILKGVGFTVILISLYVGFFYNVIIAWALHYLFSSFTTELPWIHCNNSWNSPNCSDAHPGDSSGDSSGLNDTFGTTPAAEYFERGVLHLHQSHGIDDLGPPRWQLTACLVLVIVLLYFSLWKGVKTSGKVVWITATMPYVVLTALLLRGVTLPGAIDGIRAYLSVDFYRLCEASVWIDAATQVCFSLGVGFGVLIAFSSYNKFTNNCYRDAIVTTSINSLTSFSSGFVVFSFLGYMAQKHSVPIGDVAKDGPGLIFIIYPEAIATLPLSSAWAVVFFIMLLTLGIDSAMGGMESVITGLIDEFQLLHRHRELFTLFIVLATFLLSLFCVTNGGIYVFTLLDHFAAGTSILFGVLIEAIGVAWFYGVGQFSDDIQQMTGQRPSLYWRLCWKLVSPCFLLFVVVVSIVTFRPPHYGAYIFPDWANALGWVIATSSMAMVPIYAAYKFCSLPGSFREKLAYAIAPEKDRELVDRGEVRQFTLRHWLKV

Chain of Platelet-activating factor receptor (P25105 whole entry): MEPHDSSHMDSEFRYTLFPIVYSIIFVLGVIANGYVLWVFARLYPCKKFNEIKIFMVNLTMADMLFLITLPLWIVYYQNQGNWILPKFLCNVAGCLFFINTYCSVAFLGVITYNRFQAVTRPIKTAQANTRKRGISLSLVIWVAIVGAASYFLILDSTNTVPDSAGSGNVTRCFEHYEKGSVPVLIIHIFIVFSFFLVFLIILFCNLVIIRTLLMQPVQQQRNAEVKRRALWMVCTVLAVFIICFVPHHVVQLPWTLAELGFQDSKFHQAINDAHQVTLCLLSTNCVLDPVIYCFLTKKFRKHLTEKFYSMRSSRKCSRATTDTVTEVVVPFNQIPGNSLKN
Chain of Tyrosine-protein kinase Lck (P06239 whole entry): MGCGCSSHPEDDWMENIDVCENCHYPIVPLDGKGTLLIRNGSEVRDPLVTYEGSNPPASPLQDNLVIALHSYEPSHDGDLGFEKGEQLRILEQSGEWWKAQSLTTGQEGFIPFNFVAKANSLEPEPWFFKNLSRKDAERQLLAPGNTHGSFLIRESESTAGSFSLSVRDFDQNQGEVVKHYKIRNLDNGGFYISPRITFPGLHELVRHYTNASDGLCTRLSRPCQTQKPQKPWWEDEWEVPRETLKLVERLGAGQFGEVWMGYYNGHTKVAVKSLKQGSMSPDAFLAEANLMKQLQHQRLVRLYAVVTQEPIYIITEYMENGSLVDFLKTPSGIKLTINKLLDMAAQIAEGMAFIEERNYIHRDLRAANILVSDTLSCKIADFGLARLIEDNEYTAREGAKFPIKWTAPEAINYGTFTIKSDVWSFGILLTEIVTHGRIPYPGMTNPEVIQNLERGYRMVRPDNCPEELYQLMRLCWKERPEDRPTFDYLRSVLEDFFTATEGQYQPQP
Chain of Cytochrome P450 3A4 (P08684 whole entry): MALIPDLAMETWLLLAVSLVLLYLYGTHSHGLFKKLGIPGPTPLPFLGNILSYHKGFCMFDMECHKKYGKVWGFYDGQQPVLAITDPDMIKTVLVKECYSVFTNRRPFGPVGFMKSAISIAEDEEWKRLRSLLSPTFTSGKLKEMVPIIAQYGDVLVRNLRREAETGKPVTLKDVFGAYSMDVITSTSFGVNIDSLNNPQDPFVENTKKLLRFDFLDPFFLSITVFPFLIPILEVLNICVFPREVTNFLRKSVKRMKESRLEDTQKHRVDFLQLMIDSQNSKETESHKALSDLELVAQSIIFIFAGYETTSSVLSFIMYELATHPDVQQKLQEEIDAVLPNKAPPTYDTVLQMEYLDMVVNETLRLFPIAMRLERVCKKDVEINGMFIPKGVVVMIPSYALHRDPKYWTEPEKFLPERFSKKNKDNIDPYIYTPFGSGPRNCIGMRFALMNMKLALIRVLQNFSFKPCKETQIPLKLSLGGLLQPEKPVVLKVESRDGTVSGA

SMILES | IC50 [1] | IC50 [2] | Ki [2] | IC50 [3] | IC50 [4] | Ki [4] | IC50 [5] | IC50 [6] | IC50 [7] | IC50 [8] | Ki [8] | IC50 [9] | IC50 ([10]; cho-k1) | IC50 ([8]; read-out: IC50) | Ki ([8]; read-out: Ki) | IC50 ([10]; read-out: IC50) | Ki ([10]; read-out: Ki)
CC1=C(CC(=O)O)c2cc(F)ccc2/C1=C\c1ccc([S+](C)[O-])cc1 (centres undefined) | Not Active | Not Active | Not Active | Not Active | Not Active | Not Active | Not Active | Not Active | Not Active | Not Active | Not Active | Not Active | Not Active | – | – | – | –
N[C@H](CSC(=S)NCc1ccccc1)C(=O)O | Not Active | Not Active | Not Active | Not Active | Not Active | Not Active | Not Active | Not Active | Not Active | Not Active | Not Active | Not Active | Not Active | – | – | – | –
CC(=O)N[C@@H]1[C@H](Oc2c3cc4cc2Oc2ccc(cc2Cl)[C@@H](O[C@@H]2O[C@@H](CO)[C@@H](O)[C@H](O)[C@@H]2NC(C)=O)[C@@H]2NC(=O)[C@H](NC(=O)[C@@H]4NC(=O)[C@H]4NC(=O)[C@@H](Cc5ccc(c(Cl)c5)O3)NC(=O)[C@H](N)c3ccc(O)c(c3)Oc3cc(O)cc4c3)c3ccc(O)c(c3)-c3c(O[C@H]4O[C@H](CO)[C@@H](O)[C@@H](O)[C@@H]4O)cc(O)cc3[C@@H](C(=O)O)NC2=O)O[C@@H](CO)[C@@H](O)[C@@H]1O | Not Active | Not Active | Not Active | Not Active | Not Active | Not Active | Not Active | Not Active | Not Active | Not Active | Not Active | Not Active | Not Active | – | – | – | –
COCCCOc1ccnc(C[S+]([O-])c2nc3ccccc3[nH]2)c1C (centres undefined) [RABEPRAZOLE] | Not Active | Not Active | Not Active | Not Active | Not Active | Not Active | Not Active | Not Active | Not Active | Not Active | Not Active | Not Active | Not Active | – | – | – | –
CNC(=C[N+](=O)[O-])NCCSCc1ccc(CN(C)C)o1 [RANITIDINE] | Not Active | Not Active | Not Active | Not Active | Not Active | Not Active | Not Active | Not Active | Not Active | Not Active | Not Active | Not Active | Not Active | – | – | – | –
CO[C@H]1/C=C/O[C@@]2(C)Oc3c(C)c(O)c4c(c3C2=O)C2=NC3(CCN(CC(C)C)CC3)NC2=C(NC(=O)/C(C)=C\C=C\[C@H](C)[C@H](O)[C@@H](C)[C@@H](O)[C@@H](C)[C@H](OC(C)=O)[C@@H]1C)C4=O [RIFABUTIN] | Not Active | Not Active | Not Active | Not Active | Not Active | Not Active | Not Active | Not Active | Not Active | Not Active | Not Active | Not Active | Not Active | – | – | – | –
CC(C)CC(N(C)C)C1(c2ccc(Cl)cc2)CCC1 (centres undefined) [SIBUTRAMINE] | Not Active | Not Active | Not Active | Not Active | Not Active | Not Active | Not Active | Not Active | Not Active | – | – | Not Active | – | 809 nM | 719 nM | 632 nM | 502 nM
[H]/N=C(/N)N[C@H]1[C@H](O)[C@@H](O)[C@H](O[C@@H]2O[C@@H](C)[C@](O)(C=O)[C@H]2O[C@@H]2O[C@@H](CO)[C@H](O)[C@@H](O)[C@@H]2NC)[C@@H](N/C(N)=N\[H])[C@@H]1O [STREPTOMYCIN] | Not Active | Not Active | Not Active | Not Active | Not Active | Not Active | Not Active | Not Active | Not Active | Not Active | Not Active | Not Active | Not Active | – | – | – | –
COc1cc(NS(=O)(=O)c2ccc(N)cc2)nc(OC)n1 [SULFADIMETHOXINE] | Not Active | Not Active | Not Active | Not Active | Not Active | Not Active | Not Active | Not Active | Not Active | Not Active | Not Active | Not Active | Not Active | – | – | – | –
Cc1cc(C)nc(NS(=O)(=O)c2ccc(N)cc2)n1 [SULFAMETHAZINE] | Not Active | Not Active | Not Active | Not Active | Not Active | Not Active | Not Active | Not Active | Not Active | Not Active | Not Active | Not Active | Not Active | – | – | – | –
C[C@]1(Cn2ccnn2)[C@H](C(=O)O)N2C(=O)C[C@H]2S1(=O)=O [TAZOBACTAM] | Not Active | Not Active | Not Active | Not Active | Not Active | Not Active | Not Active | Not Active | Not Active | Not Active | Not Active | Not Active | Not Active | – | – | – | –
CN1C(C(=O)Nc2ccccn2)=C(O)c2sccc2S1(=O)=O [TENOXICAM] | Not Active | Not Active | Not Active | Not Active | Not Active | Not Active | Not Active | Not Active | Not Active | Not Active | Not Active | Not Active | Not Active | – | – | – | –
O=C1CCC(N2C(=O)c3ccccc3C2=O)C(=O)N1 (centres undefined) [THALIDOMIDE] | Not Active | Not Active | Not Active | Not Active | Not Active | Not Active | Not Active | Not Active | Not Active | Not Active | Not Active | Not Active | Not Active | – | – | – | –
Cc1cccc(Nc2ccncc2S(=O)(=O)NC(=O)NC(C)C)c1 [TORSEMIDE] | Not Active | Not Active | Not Active | Not Active | Not Active | Not Active | Not Active | Not Active | Not Active | Not Active | Not Active | Not Active | Not Active | – | – | – | –
CC(C)C[C@H](NC(=O)[C@@H](O)[C@H](N)Cc1ccccc1)C(=O)O [UBENIMEX] | Not Active | Not Active | Not Active | Not Active | Not Active | Not Active | Not Active | Not Active | Not Active | Not Active | Not Active | Not Active | Not Active | – | – | – | –
Cc1onc(-c2ccccc2)c1-c1ccc(S(N)(=O)=O)cc1 [VALDECOXIB] | Not Active | Not Active | Not Active | Not Active | Not Active | Not Active | Not Active | Not Active | Not Active | Not Active | Not Active | Not Active | Not Active | – | – | – | –
